For the test, the target named is T1, IDO1 (Homo sapiens, UniProt P14902).
T1 construct: endogenous in cells; host or cells: HeLa cells (ATCC), IFNgamma-induced
Nature of the test: IDO1 cell-based assay (HeLa cells, IFNgamma-induced, N-formylkynurenine/L-tryptophan by RFMS). The note with it: 10 ng/mL IFNgamma, 24 hours. The method, then: HeLa cells were obtained from the American Type Culture Collection (ATCC) and maintained in DMEM media containing 10% FBS. Cells (7,000/well) were seeded onto a 384 well plate in 50 μL of media and incubated at 37° C., 5% CO2 overnight. Cell media was aspirated, fresh media containing 10 ng/mL IFNgamma was added, and cells were incubated in absence or presence of various concentrations of test compound (final 0.5% DMSO) for 24 hours. Aliquots of the cell conditioned media were removed from the cell plate, and mixed with an equal volume of 200 mM ZnSO4 to precipitate media containing proteins. Two volumes of acetonitrile were added, mixed, and samples were then centrifuged at 2250G for 20 minutes at 4° C. Aliquots of the supernatant were diluted 1:10 in 0.1% formic acid containing 3 μM of deuterated Tryptophan as an internal standard.
Samples were analyzed via RFMS to quantify N-Formyl Kynurenine (AUC) and L-tryptophan (AUC). A C18 cartridge was used with mobile phases of 0.1% Formic Acid and 80% ACN/0.1% Formic Acid under isocratic conditions. Dose-response curves were analyzed using IC50 regression curve fitting (GeneData Screener). […] Cell viability was also assessed using the Cell Titer Glo Kit (Promega) following manufacturer recommendation.

Some results are limits rather than exact numbers.

T1 sequence (P14902 whole entry): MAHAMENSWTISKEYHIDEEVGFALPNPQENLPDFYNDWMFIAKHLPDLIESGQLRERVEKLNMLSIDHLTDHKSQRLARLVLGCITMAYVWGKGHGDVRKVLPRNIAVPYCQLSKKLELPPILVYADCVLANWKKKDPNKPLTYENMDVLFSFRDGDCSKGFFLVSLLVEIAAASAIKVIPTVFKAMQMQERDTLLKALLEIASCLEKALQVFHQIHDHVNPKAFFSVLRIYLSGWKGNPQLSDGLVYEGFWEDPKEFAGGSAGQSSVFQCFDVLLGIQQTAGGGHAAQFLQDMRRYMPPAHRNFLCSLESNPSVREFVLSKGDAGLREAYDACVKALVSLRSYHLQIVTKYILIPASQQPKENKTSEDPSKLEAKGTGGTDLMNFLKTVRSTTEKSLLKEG

For the compound `CC(NC(=O)c1ccc(C#N)cc1)[C@H]1[C@@H]2C[C@@H](NC(=O)c3ccccn3)C[C@@H]21` (stereo partly drawn) [Compound 143, N-((1R,3s,5S,6r)-6-(1-(4-cyanobenzamido)ethyl)bicyclo[3.1.0]hexan-3-yl)picolinamide], the concentration for half-maximal inhibition (IC50) was less than 200 nM.
The compound `CCC(NC(=O)c1ccc(Cl)cc1)[C@H]1[C@@H]2C[C@@H](Oc3ccnc(C)c3)C[C@@H]21` (stereo partly drawn) [Compound 15, 4-chloro-N-(1-((1R,3s,5S,6r)-3-((2-methylpyridin-4-yl)oxy)bicyclo[3.1.0]hexan-6-yl)propyl)benzamide] registered an IC50 of less than 200 nM.
The value for `CCC(NC(=O)c1ccc(Cl)cc1)[C@H]1[C@@H]2C[C@@H](Oc3ncnc4cc(F)ccc34)C[C@@H]21` (stereo partly drawn) [Compound 35, 4-chloro-N-(1-((1R,3s,5S,6r)-3-((7-fluoroquinazolin-4-yl)oxy)bicyclo[3.1.0]hexan-6-yl)propyl)benzamide] was less than 200 nM; that for `CCC(NC(=O)c1ccc(Cl)cc1)[C@H]1[C@@H]2C[C@@H](Oc3c(Cl)ccnc3C)C[C@@H]21` (stereo partly drawn) [Compound 92, 4-chloro-N-(1-((1R,3s,5S,6r)-3-((4-chloro-2-methylpyridin-3-yl)oxy)bicyclo[3.1.0]hexan-6-yl)propyl)benzamide] was less than 200 nM; that for `Cc1ccc(C(=O)NC[C@@H]2[C@H]3C[C@H](n4cnc5cc(F)c(F)cc54)C[C@@H]23)cc1` [Compound 322, N-(((1R,3s,5S,6r)-3-(5,6-difluoro-1H-benzo[d]imidazol-1-yl)bicyclo[3.1.0]hexan-6-yl)methyl)-4-methylbenzamide] was less than 200 nM.
As to `CCC(NC(=O)c1ccc(Cl)cc1)[C@H]1[C@@H]2C[C@@H](Oc3ncnc4ccccc34)C[C@@H]21` (stereo partly drawn) [Compound 59, 4-chloro-N-(1-((1R,3s,5S,6r)-3-(quinazolin-4-yloxy)bicyclo[3.1.0]hexan-6-yl)propyl)benzamide], the IC50 was less than 200 nM.
`CC(NC(=O)c1ccc(C#N)cc1)[C@H]1[C@@H]2C[C@@H](Oc3cnnc4ccccc34)C[C@@H]21` (stereo partly drawn) [Compound 135, N-(1-((1R,3s,5S,6r)-3-(cinnolin-4-yloxy)bicyclo[3.1.0]hexan-6-yl)ethyl)-4-cyanobenzamide]: the IC50 lay in the range of 200 to 2000 nM.
Take `O=C(Cc1ncc(Cl)cc1F)NC1C2CN(c3ccnc4ccc(F)cc34)CC21` (stereo not drawn) [Compound 112, 2-(5-chloro-3-fluoropyridin-2-yl)-N-(3-(6-fluoroquinolin-4-yl)-3-azabicyclo[3.1.0]hexan-6-yl)acetamide]: the IC50 was greater than 5000 nM.
Compound `CCC(NC(=O)c1ccc(Cl)cc1)[C@H]1[C@@H]2C[C@@H](Oc3cnc4ccccc4c3)C[C@@H]21` (stereo partly drawn) [Compound 49, 4-chloro-N-(1-((1R,3s,5S,6r)-3-(quinolin-3-yloxy)bicyclo[3.1.0]hexan-6-yl)propyl)benzamide] registered an IC50 of less than 200 nM.
The value for `O=S(=O)(Cc1ccc(Br)cc1)NC1C2CC(Oc3ccnc4ccccc34)CC21` (stereo not drawn) [Compound 27, 1-(4-bromophenyl)-N-(3-(quinolin-4-yloxy)bicyclo[3.1.0]hexan-6-yl)methanesulfonamide] was greater than 5000 nM.
In turn, `Cc1cccc(C(=O)NC[C@@H]2[C@H]3C[C@H](n4cnc5cc(F)c(F)cc54)C[C@@H]23)c1` [Compound 323, N-(((1R,3s,5S,6r)-3-(5,6-difluoro-1H-benzo[d]imidazol-1-yl)bicyclo[3.1.0]hexan-6-yl)methyl)-3-methylbenzamide] displayed an IC50 of 200 to 2000 nM.
The compound `O=C(NC1C2CN(c3ccnc4ccc(F)cc34)CC21)C(CO)c1ccccc1` (stereo not drawn) [Compound 110, N-(3-(6-fluoroquinolin-4-yl)-3-azabicyclo[3.1.0]hexan-6-yl)-3-hydroxy-2-phenylpropanamide] registered a concentration for half-maximal inhibition (IC50) greater than 5000 nM.
As to `O=C(Cc1ccc(Cl)cc1)NC1[C@H]2CC(Oc3ccnc4ccc(F)cc34)C[C@@H]12` (stereo partly drawn) [Compound 31, 2-(4-chlorophenyl)-N-((1R,3r,5S)-3-((6-fluoroquinolin-4-yl)oxy)bicyclo[3.1.0]hexan-6-yl)acetamide], the IC50 is 200 to 2000 nM.
`CCC(NC(=O)c1ccc(Cl)cc1)[C@H]1[C@@H]2C[C@@H](NS(=O)(=O)c3ccccc3)C[C@@H]21` (stereo partly drawn) [Compound 116, 4-chloro-N-(1-((1R,3s,5S,6r)-3-(phenylsulfonamido)bicyclo[3.1.0]hexan-6-yl)propyl)benzamide] registered an IC50 of 200 to 2000 nM.
As for `CC[C@@H](NC(=O)c1ccc(Cl)cc1)[C@H]1[C@@H]2C[C@@H](n3cccn3)C[C@@H]21` [Compound 324, N-((R)-1-((1R,3S,5S,6r)-3-(1H-pyrazol-1-yl)bicyclo[3.1.0]hexan-6-yl)propyl)-4-chlorobenzamide], the IC50 was less than 200 nM.
Turning to `O=C(NC1C2CC(Oc3cc(C(F)(F)F)nc4ccc(F)cc34)CC21)c1ccc(Cl)cc1` (stereo not drawn) [Compound 25, 4-chloro-N-(3-((6-fluoro-2-(trifluoromethyl)quinolin-4-yl)oxy)bicyclo[3.1.0]hexan-6-yl)benzamide], the IC50 is greater than 5000 nM.
Compound `CCC(NC(=O)c1ccc(OC)nc1)[C@H]1[C@@H]2C[C@@H](n3cnc4ccc(F)cc4c3=O)C[C@@H]21` (stereo partly drawn) [Compound 74, N-(1-((1R,3s,5S,6r)-3-(6-fluoro-4-oxoquinazolin-3(4H)-yl)bicyclo[3.1.0]hexan-6-yl)propyl)-6-methoxynicotinamide] had a concentration for half-maximal inhibition (IC50) of 200 to 2000 nM.
`CCC(NC(=O)c1ccc(Cl)cc1)[C@H]1[C@@H]2C[C@@H](n3ncc(=O)c4ccccc43)C[C@@H]21` (stereo partly drawn) [Compound 47, 4-chloro-N-(1-((1R,3s,5S,6r)-3-(4-oxocinnolin-1(4H)-yl)bicyclo[3.1.0]hexan-6-yl)propyl)benzamide] registered a concentration for half-maximal inhibition (IC50) of less than 200 nM.
Take `CC[C@@H](NC(=O)c1ccc(Cl)cc1)[C@H]1[C@@H]2C[C@@H](Nc3ccccc3C#N)C[C@@H]21` [Compound 331, 4-chloro-N—((R)-1-((1R,3S,5S, 6r)-3-((2-cyanophenyl)amino)bicyclo[3.1.0]hexan-6-yl)propyl)benzamide]: the IC50 is less than 200 nM.
As for `C[C@@H](NC(=O)c1ccc(C#N)cc1)[C@H]1[C@@H]2C[C@@H](O)C[C@@H]21` [Compound 297, 4-cyano-N-((R)-1-((1R,3S,5S,6r)-3-hydroxybicyclo[3.1.0]hexan-6-yl)ethyl)benzamide], the figure is greater than 5000 nM; as for `CC[C@@H](NC(=O)c1ccc(Cl)cc1)[C@H]1[C@@H]2C[C@@H](n3nccc3C3CC3)C[C@@H]21` [Compound 342, 4-chloro-N-((R)-1-((1R,3S,5S,6r)-3-(5-cyclopropyl-1H-pyrazol-1-yl)bicyclo[3.1.0]hexan-6-yl)propyl)benzamide], less than 200 nM; as for `CCC(NC(=O)c1ccc(Cl)cc1)C1C2CC(Oc3ncnc4cccc(F)c34)CC21` [Compound 37, 4-chloro-N-(1-((1R,3s,5S,6r)-3-((5-fluoroquinazolin-4-yl)oxy)bicyclo[3.1.0]hexan-6-yl)propyl)benzamide], less than 200 nM.
The compound `CC(NC(=O)c1ccc(Cl)cc1)[C@H]1[C@@H]2C[C@@H](n3cnc4ccc(F)cc4c3=O)C[C@@H]21` (stereo partly drawn) [Compound 63, 4-chloro-N-(1-((1R,3s,5S,6r)-3-(6-fluoro-4-oxoquinazolin-3(4H)-yl)bicyclo[3.1.0]hexan-6-yl)ethyl)benzamide] showed an IC50 of less than 200 nM.
The value for `COC(=O)C(NC(=O)c1ccc(Cl)cc1)[C@H]1[C@@H]2C[C@@H](n3cc(C4CC4)nn3)C[C@@H]21` (stereo partly drawn) [Compound 169, methyl 2-(4-chlorobenzamido)-2-((1R,3s,5S,6r)-3-(4-cyclopropyl-1H-1,2,3-triazol-1-yl)bicyclo[3.1.0]hexan-6-yl)acetate] was 200 to 2000 nM.
The value for `O=C(NCc1ccc(Cl)cc1)C1[C@H]2CC(Oc3cc(C(F)(F)F)nc4ccc(F)cc34)C[C@@H]12` (stereo partly drawn) [Compound 17, (1R,5S)-N-(4-chlorobenzyl)-3-((6-fluoro-2-(trifluoromethyl)quinolin-4-yl)oxy)bicyclo[3.1.0]hexane-6-carboxamide] was greater than 5000 nM; that for `CCC(NC(=O)c1ccc(Cl)cc1)[C@H]1[C@@H]2C[C@@H](Oc3ccc(F)cc3)C[C@@H]21` (stereo partly drawn) [Compound 14, 4-chloro-N-(1-((1R,3s,5S,6r)-3-(4-fluorophenoxy)bicyclo[3.1.0]hexan-6-yl)propyl)benzamide] was less than 200 nM; that for `CCC(NC(=O)c1ccc(Cl)cn1)C1C2CC(n3cnc4ccc(F)cc4c3=O)CC21` [Compound 75, 5-chloro-N-(1-((1R,3s,5S,6r)-3-(6-fluoro-4-oxoquinazolin-3(4H)-yl)bicyclo[3.1.0]hexan-6-yl)propyl)picolinamide] was less than 200 nM.
In turn, `CCC(NC(=O)c1ccc(Cl)cc1)[C@H]1[C@@H]2C[C@@H](Oc3cccc(C)n3)C[C@@H]21` (stereo partly drawn) [Compound 40, 4-chloro-N-(1-((1R,3s,5S,6r)-3-((6-methylpyridin-2-yl)oxy)bicyclo[3.1.0]hexan-6-yl)propyl)benzamide] came in with an IC50 of less than 200 nM.
The value for `CCC(NC(=O)c1ccc(Cl)cc1)[C@H]1[C@@H]2C[C@@H](N3C(=O)C(=O)c4ccccc43)C[C@@H]21` (stereo partly drawn) [Compound 114, 4-chloro-N-(1-((1R,3s,5S,6r)-3-(2,3-dioxoindolin-1-yl)bicyclo[3.1.0]hexan-6-yl)propyl)benzamide] was 200 to 2000 nM; that for `CCC(NC(=O)c1ccc(Cl)cc1)[C@H]1[C@@H]2C[C@H](Oc3ccc4nccc(Cl)c4c3)C[C@@H]21` (stereo partly drawn) [Compound 127, 4-chloro-N-(1-((1R,3r,5S,6r)-3-((4-chloroquinolin-6-yl)oxy)bicyclo[3.1.0]hexan-6-yl)propyl)benzamide] was less than 200 nM.

As usually defined, the IC50 is the point on the concentration scale where inhibition reaches its midpoint.

(Values after patent US11173145B2, “Compounds useful as inhibitors of indoleamine 2,3-dioxygenase and/or tryptophan dioxygenase” (Board of Regents, The University of Texas System, priority 2017, dated 2021).)
